Assay results taken from patent publication US7074812B2, “Development of muscle mass in a mammal” (Nutraleutical Development Corporation, priority 2002, dated 2006).
Like-named read-outs stand apart in the source and are kept apart here.

Legend:
[1] = system: males aged 30–59 years old
Protocol: In order to determine the effects of a nicotine supplement on human subjects, a double blind placebo controlled study was conducted. The study tested 32 males aged 30–59 years old. Each participant needed to have been weight-lifting and exercising on a consistent basis for at least one full year prior to the study. The study required each of the 32 males to remain consistent with their current exercise program (minimum of 3×'s per week), required not to add any new exercises to their current program, not add any new supplements to their diet during the six week study and to take the nicotine supplement 30 minutes prior to exercise. The nicotine supplement was 3 micrograms of nicotine in a standard 300 mg capsule containing polyethylene gycol (PEG) as a vehicle. The placebo capsule was identical in all aspects but contained no active (nicotine) ingredients.
The 32 males were subdivided into 4 groups, 2 placebo groups (8 took 1 capsule and 8 took 2 capsules with no active nicotine ingredients prior to exercise). In the other two groups (active), 8 subjects took 3 micrograms of nicotine and 8 took 6 micrograms of nicotine prior to exercise. The individuals were tested in the beginning and conclusion of the study in the following areas: (1) overall body fat/lean muscle ratio (ELG impedance test was used, which is 98% accurate compared to skinfold testing); (2) biceps; (3) upper leg muscle mass; and (4) 10 exercise repetition maximum, for both upper and lower body strength test (bench press and leg press). Participant workouts were logged by each individual in their own notebooks, to ensure consistency and compliance

healthy male mice = conditions: 60 micrograms nicotine/ml drinking water
From the text: To study the effects of nicotine in the diet of mice in combination with exercise, 34 mice were divided into two equal groups. The diet of one group of mice was supplemented with nicotine added to the drinking water and the other group had plain water. Both groups received the same chow and water freely.
The experiment was a double-blind investigative study including a total of 34 healthy male mice that were approximately 9 weeks old, weighing approximately 35 grams. The mice were received one week prior to the start of the study to allow for a week of acclimation to the study site and the handlers. Because mice are active when it is dark and sleep when it is light, an automatic lighting system (12 hour dark/12 hour light) was set up for the duration of the study. The dark cycle was from 9 pm to 9 am and the light cycle from 9 am to 9 pm. The mice were subjected to a 3 week weighted exercise regimen on a treadmill wheel.
The 34 mice were divided in 2 groups of 17 mice each. Group 1 (nicotine treatment) received water laced with nicotine containing 60 micrograms nicotine/ml water and 10 mg saccharine tablet or pinch of a sugar substitute powder. The sugar substitute served to mask the bitter taste of nicotine in the water. Group 2 (placebo or control) followed the same weight exercise regimen as the nicotine treatment group. Their drinking water was plain water with the same amount of saccharine or sugar substitute as in Group 1. Each mouse had access to its water ad libitum daily during the study period, regardless of the group. Weekly water consumption was measured.
Mice in both groups were subjected to a weight/exercise regimen in the morning at the end of the dark cycle around 8:00 am. Weights were affixed to each animal at the beginning of the exercise. The weights were approximately 10% of body weight measured at Day -1 of the study, and adjusted based on body weight, measured weekly. The mice were exercised for 15 minutes per day or until exhaustion, 5 days a week for 3 weeks on a Mouse Forced Exercise Walking/Running Wheel System (Model 80800, Lafayette Instrument, North Lafayette, Ind. 47903). The largest part of the upper hind muscle of the mice was measured with a dial caliper every week. Two measurements on each leg were taken and the average was calculated.

[2] = 1 capsule (3 micrograms of nicotine), n = 8
[3] = 2 capsules (6 micrograms of nicotine), n = 8
[4] = Nicotine 1 or 2 capsules pooled, n = 16
[5] = individual subjects, six-week study

**Q.** With `CN1CCCC1c1cccnc1` (stereo not shown) [Nicotine, nicotine] as the compound, how does the “Upper-body Strength, Change Over Study (Post-Pre), Median (Range)” value (“Upper-body Strength, Change Over Study” below) ([1]; 1 capsule (3 micrograms of nicotine) prior to exercise, n = 8, bench press 10 repetition maximum) read?
**A.** 10.00 (5.00, 20.00)

**Q.** And the “Bicep Circumference, Change Over Study (Post-Pre), Median (Range)” value (“Bicep Circumference, Change Over Study” below) [1, 2]?
**A.** 0.45 (−0.20, 2.00) cm

**Q.** What about the “Body Fat %, Change Over Study (Post-Pre), Median (Range)” value (“Body Fat %, Change Over Study” below) [1, 2] of the same compound?
**A.** −0.65 (−1.90, 0.70) %

**Q.** And the “Body Mass Index, Change Over Study (Post-Pre), Median (Range)” value (shortened to “Body Mass Index, Change Over Study”) [1, 2]?
**A.** −0.13 (−0.79, 0.45)

**Q.** What about the “Lean Mass %, Change Over Study (Post-Pre), Median (Range)” value (from here on “Lean Mass %, Change Over Study”) [1, 2] of the same compound?
**A.** 0.65 (−0.70, 1.90) %

**Q.** And the “Quadricep Circumference, Change Over Study (Post-Pre), Median (Range)” value [1, 2]?
**A.** 0.00 (−2.00, 2.50) cm

**Q.** What about the “Weight, Change Over Study (Post-Pre), Median (Range)” value (“Weight, Change Over Study (Post-Pre)” for short) [1, 2] of the same compound?
**A.** −1.00 (−6.00, 3.00) lbs

**Q.** What about the “Lower-body Strength, Change Over Study (Post-Pre), Median (Range)” value (“Lower-body Strength, Change Over Study” for short) ([1]; 1 capsule (3 micrograms of nicotine), n = 8, leg press 10 repetition maximum) of the same compound?
**A.** 65.00 (15.00, 90.00)

**Q.** What about the “Upper-body Strength, Change Over Study” value ([1]; 2 capsules (6 micrograms of nicotine) prior to exercise, n = 8, bench press 10 repetition maximum) of the same compound?
**A.** 10.00 (5.00, 20.00)

**Q.** And the “Bicep Circumference, Change Over Study” value [1, 3]?
**A.** 0.63 (−1.50, 1.70) cm

**Q.** And the “Body Fat %, Change Over Study” value [1, 3]?
**A.** −1.05 (−5.90, 0.10) %

**Q.** And the “Body Mass Index, Change Over Study” value [1, 3]?
**A.** −0.08 (−1.22, 0.94)

**Q.** And the “Lean Mass %, Change Over Study” value [1, 3]?
**A.** 1.05 (−0.10, 5.90) %

**Q.** And the “Quadricep Circumference, Change Over Study (Post-Pre), Median (Range)” value [1, 3]?
**A.** 0.00 (−2.00, 3.00) cm

**Q.** What about the “Weight, Change Over Study (Post-Pre)” value [1, 3] of the same compound?
**A.** −0.50 (−8.00, 6.75) lbs

**Q.** And the “Lower-body Strength, Change Over Study” value ([1]; 2 capsules (6 micrograms of nicotine), n = 8, leg press 10 repetition maximum)?
**A.** 80.00 (20.00, 320.00)

**Q.** What about the “Bicep Circumference, Change Over Study” value [1, 4] of the same compound?
**A.** 0.45 (−1.50, 2.00) cm

**Q.** And the “Body Fat %, Change Over Study” value [1, 4]?
**A.** −0.95 (−5.90, 0.70) %

**Q.** What about the “Body Mass Index, Change Over Study” value [1, 4] of the same compound?
**A.** −0.11 (−1.22, 0.94)

**Q.** What about the “Lean Mass %, Change Over Study” value [1, 4] of the same compound?
**A.** 0.95 (−0.70, 5.90) %

**Q.** What about the “Lower-body Strength, Change Over Study” value [1, 4] of the same compound?
**A.** 70.00 (15.00, 320.00)

**Q.** What about the “Quadricep Circumference, Change Over Study (Post-Pre), Median (Range)” value [1, 4] of the same compound?
**A.** 0.00 (−2.00, 3.00) cm

**Q.** What about the “Upper-body Strength, Change Over Study” value [1, 4] of the same compound?
**A.** 10.00 (5.00, 20.00)

**Q.** What about the “Weight, Change Over Study (Post-Pre)” value [1, 4] of the same compound?
**A.** −0.75 (−8.00, 6.75) lbs

**Q.** What about the “subjects who noted an increase in overall endurance, leg strength and a strong thermogenic effect” value ([1]; active (nicotine) group, six-week study) of the same compound?
**A.** 13 of the 16

**Q.** And the “individuals who made significant changes in either body, strength levels or muscle mass or in all three test areas” value ([1]; active (nicotine) group, placebo five of the sixteen)?
**A.** Fifteen of the sixteen

**Q.** What about the “change of overall body fat, one subject” value ([1]; individual subject, six-week study) of the same compound?
**A.** 32%

**Q.** What about the “increase of leg strength, five subjects” value [1, 5] of the same compound?
**A.** over 25%

**Q.** And the “increase of leg strength, two of the five subjects” value [1, 5]?
**A.** 40%

**Q.** And the “increase in leg diameter versus control group, overall” value (healthy male mice; 3 weeks)?
**A.** significantly greater increase in leg diameter

**Q.** What about the “average increase of leg diameter, average of day 7, 14 and 21 compared with day 0” value (healthy male mice; control 0.5 mm) of the same compound?
**A.** 1.7 mm

**Q.** What about the “average increase of leg diameter compared to day 0” value (healthy male mice; day 7, control 0.6 mm) of the same compound?
**A.** 1.6 mm

**Q.** What about the “average increase of leg diameter compared to day 0” value (healthy male mice; day 14, control 2.1 mm) of the same compound?
**A.** 2.8 mm

**Q.** And the “increase of leg diameter compared to day 0” value (healthy male mice; day 21, control 1.1 mm decrease)?
**A.** 0.7 mm
